Assay results as given in PubChem BioAssay (NCI).
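GI50 is the concentration that inhibits growth by half. At the TGI there is no net growth.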

Tests used:
Experiment in all cases: NCI-60 cell line screen, 384-well format
[1] = test system: NCI-H322M lung
[2] = test system: OVCAR-5 ovarian
[3] = test system: IGROV1 ovarian
[4] = test system: COLO 205 colon
[5] = test system: ACHN renal
[6] = test system: MALME-3M melanoma
[7] = test system: HCC-2998 colon
[8] = test system: KM12 colon
[9] = test system: HS 578T breast
[10] = test system: HL-60(TB) leukemia
[11] = test system: T-47D breast
[12] = test system: SF-295 CNS
[13] = test system: U251 glioblastoma
[14] = test system: SNB-19 CNS
[15] = test system: SK-MEL-28 melanoma
[16] = test system: A549 NSCLC
[17] = test system: RPMI-8226 leukemia
[18] = test system: M14 melanoma
[19] = test system: OVCAR-8 ovarian
[20] = test system: BT-549 breast
[21] = test system: UACC-257 melanoma
[22] = test system: RXF 393 renal
[23] = test system: OVCAR-4 ovarian
[24] = test system: SK-MEL-5 melanoma
[25] = test system: NCI/ADR-RES ovarian
[26] = test system: NCI-H23 lung
[27] = test system: HOP-92 NSCLC
[28] = test system: HT29 colon
[29] = test system: UO-31 renal

CNC(=O)c1c(F)cccc1Nc1nc(Nc2cc3c(cc2OC)CCN3C(=O)CN(C)C)nc2[nH]ccc12
GI50 [1]: 1580 nM | TGI [1]: 3180 nM | GI50 [2]: 1480 nM | TGI [2]: 3240 nM | GI50 [3]: 1760 nM | TGI [3]: 3270 nM | GI50 [4]: 152 nM | TGI [4]: 1230 nM | GI50 [5]: 1740 nM | TGI [5]: 3170 nM | GI50 [6]: 1250 nM | TGI [6]: 2510 nM | GI50 [7]: 1410 nM | TGI [7]: 2760 nM | GI50 [8]: 1440 nM | TGI [8]: 2770 nM | GI50 [9]: 1780 nM | TGI [9]: 3190 nM | GI50 [10]: 71.1 nM | TGI [10]: 944 nM | GI50 [11]: 1940 nM | TGI [11]: 3380 nM | GI50 [12]: 1870 nM | TGI [12]: 3290 nM | GI50 [13]: 1900 nM | TGI [13]: 3350 nM | GI50 [14]: 2350 nM | TGI [14]: 4810 nM | GI50 [15]: 1870 nM | TGI [15]: 3270 nM | GI50 [16]: 1410 nM | TGI [16]: 2760 nM | GI50 [17]: 1140 nM | TGI [17]: 2370 nM | GI50 [18]: 1510 nM | TGI [18]: 2840 nM | GI50 [19]: 1710 nM | TGI [19]: 3120 nM | GI50 [20]: 1660 nM | TGI [20]: 3040 nM | GI50 [21]: 1720 nM | TGI [21]: 3110 nM | GI50 [22]: 1720 nM | TGI [22]: 3110 nM | GI50 [23]: 1990 nM | TGI [23]: 3500 nM | GI50 [24]: 1220 nM | TGI [24]: 2480 nM | GI50 [25]: 2230 nM | TGI [25]: 4980 nM | GI50 [26]: 1330 nM | TGI [26]: 2750 nM | GI50 [27]: 1150 nM | TGI [27]: 2420 nM | GI50 [28]: 181 nM | TGI [28]: 1870 nM | GI50 [29]: 1840 nM | TGI [29]: 3290 nM
